We go through 6 compounds from article PMC6270845, “Fluorescent Probes for Insect Ryanodine Receptors: Candidate Anthranilic Diamides” (Molecules, 2014).

Values joined by “and” are separate entries in the source; they are usually repeats but may differ in a detail not shown here. Equal entries are not always repeated. Where two headings read alike, the source gives them in different places.

In one series the test system is Plutella larvae. Description: Insecticidal activity, leaf-dip bioassay. The following applies: fourth instar larvae, cabbage leaf-dip, mortality after 96 h.
Series [1] concerns the target T1, house fly thoracic muscle RyR (Musca domestica, UniProt A0A9J7DBA3). Further details: method as in PMID 22856329. The conditions noted are these: read-out: Stimulation of [3H]Ry binding (EC50), reported value; cited from earlier work.
Series [2] addresses T1, house fly thoracic muscle RyR. Further details: method as in PMID 22856329. The conditions noted are these: read-out: Inhibition of [3H]Chlo binding (IC50), reported value; cited from earlier work.
The target is the same in series [3]. Description: Inhibition of [3H]Chlo binding in Musca RyR radioligand assay. The following applies: Musca muscle membrane, 1 nM [3H]Chlo, 2 h at 37 °C. How it is done: (§1) [^3H]Ry (95 Ci/mmol, Perkin-Elmer Life Sciences, Boston, MA, USA) and [^3H]Chlo (78 Ci/mmol) were used in RyR binding assays with house fly thorax muscle membranes as reported earlier. Adults emerging from pupae obtained from Benzon Research (Carlisle, PA, USA) were used to collect the thoraces for membrane preparation. The following two buffers were used: (A) 10 μM phenylmethanesulfonyl fluoride, 0.8% bovine serum albumin, and 303 mM sucrose in 20 mM Tris-maleate, pH 7.0; and (B) 0.8 mM CaCl2, 2 mM ATP·Mg^2+ salt, and 1.5 M KCl in 10 mM Hepes, pH 7.4. Incubation mixtures were prepared by sequential addition to culture tubes of 200 μL of buffer B, 200 μL of buffer A containing thorax muscle membranes (200 μg protein) and then ethanol (5 μL) containing [^3H]Ry or [^3H]Chlo to give a final radioligand concentration of 1 nM. Finally, test compounds were added in 5 μL ethanol to give the specified concentrations of Fluor-Cl and Fluor-CN. Following incubation for 2 h at 37 °C, the mixtures were filtered through GF/B filters (Whatman, presoaked in ice-cold washing buffer) immediately after dilution with 5 mL of ice-cold washing buffer (150 mM KCl, 10 mM Hepes, pH 7.4). Each assay tube was further rinsed twice with 5 mL of ice-cold washing buffer, and the rinses were passed through the same filter. […] Binding data were analyzed and plotted by GraphPad Prism 5.0. […]

For series [4] the target is unchanged. The experiment in a line: Stimulation of [3H]Ry binding in Musca RyR radioligand assay. The following applies: Musca muscle membrane, 1 nM [3H]Ry, 2 h at 37 °C. The protocol: as §1

What is called EC50 is the concentration that produces a half-maximal response. As a reminder, the IC50 is the concentration that inhibits the measured activity by half. In the case of `CNC(=O)c1cc(Cl)cc(C)c1NC(=O)c1cc(Br)nn1-c1ncccc1Cl` [Chlo, chlorantraniliprole], in the series with Plutella larvae, the “LC50 (95%CL)” value is 0.033(0.006–0.059) ppm. Also, the EC50 in series [1] was 3 to 15 nM. In addition, the IC50 in series [2] was 6 to 14 nM.

On to `CNC(=O)c1cc(C#N)cc(C)c1NC(=O)c1cc(Br)nn1-c1ncccc1Cl` [Cyan, cyantraniliprole], for which the “LC50 (95%CL)” value in the series with Plutella larvae is recorded as 0.061(0.035–0.086) ppm. In addition, the EC50 in series [1] is 3 to 15 nM. The IC50 in series [2] was 6 to 14 nM.

Take `Cc1cc(C(F)(C(F)(F)F)C(F)(F)F)ccc1NC(=O)c1cccc(I)c1C(=O)NC(C)(C)CS(C)(=O)=O` [Flu, flubendiamide, reference compound]: the “LC50 (95%CL)” value in the series on Plutella larvae is listed as 0.056(0.037–0.068) ppm.

On to `Cc1cc(C#N)cc(C(=O)NCc2cn(-c3cc4ccc(O)cc4oc3=O)nn2)c1NC(=O)c1cc(Br)nn1-c1ncccc1Cl` [Fluor-CN, 3-Bromo-1-(3-chloropyridin-2-yl)-N-(4-cyano-2-((1-(7-hydroxy-2-oxo-2H-chromen-3-yl)-1H-1,2,3-triazol-4-yl)methylcarbamoyl)-6-methylphenyl)-1H-pyrazole-5-carboxamide], for which the “LC50 (95%CL)” value with Plutella larvae is reported as 7.57(4.57–11.77) ppm. Besides, the IC50 in series [3] was 34 to 39 nM and 39 nM. In addition, the EC50 in series [4] was 5 to 7 nM and 5 nM.

For the compound `C#CCNC(=O)c1cc(C#N)cc(C)c1NC(=O)c1cc(Br)nn1-c1ncccc1Cl` [Prop-CN, 3-bromo-N-(4-cyano-2-methyl-6-(prop 2-ynylcarbamoyl)phenyl)-1-(3-chloropyridin-2-yl)-1H-pyrazole-5-carboxamide], in the series on Plutella larvae, the “LC50 (95%CL)” value is 0.34(0.24–0.43) ppm.

Consider `C#CCNC(=O)c1cc(Cl)cc(C)c1NC(=O)c1cc(Br)nn1-c1ncccc1Cl` [Prop-Cl, 3-Bromo-N-(4-chloro-2-methyl-6-(prop-2-ynylcarbamoyl)phenyl)-1-(3-chloropyridin-2-yl)-1H-pyrazole-5-carboxamide], for which the “LC50 (95%CL)” value in the series with Plutella larvae is reported as 0.080(0.024–0.152) ppm.
